This is an account of results in patent US8796256B2 (Janssen Pharmaceutica NV, priority 2010, dated 2014).

The target of this experiment is T1, ERR1 (also known as ERR-α or ERR-1) (Homo sapiens, UniProt P11474).
T1 sequence (P11474 193-421 limits assumed): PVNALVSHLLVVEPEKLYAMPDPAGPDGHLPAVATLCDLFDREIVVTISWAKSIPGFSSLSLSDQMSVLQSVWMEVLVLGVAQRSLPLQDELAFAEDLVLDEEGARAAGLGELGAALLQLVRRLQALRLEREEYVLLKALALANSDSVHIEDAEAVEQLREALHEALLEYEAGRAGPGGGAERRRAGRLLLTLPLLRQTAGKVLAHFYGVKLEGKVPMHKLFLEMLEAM
Kind of experiment: TR-FRET assay (disruption of co-activator peptide binding to ERR1 LBD). It counts as biochemical. The settings on record: 6 nM 6His-ERR1LBD, 6 nM GST-SRC-2 peptide; average of 3 independent experiments. The procedure: Time-Resolved Fluorescence Resonance Energy Transfer (TR-FRET) experiments were performed to examine the functional response of ERR1 (also known as ERR-α or ERR-1) ligands. The TR-FRET assay described herein relied on the conformation of ERR1 for binding to a co-activator peptide: when a test compound binds to ERR1 and alters its conformation, it can disrupt the binding of the co-activator peptide. The components of this homogeneous secondary assay included: the ^6His-tagged-ERR1LBD, a GST-labeled-hSRC2 co-activator polypeptide and a fluorescent donor/acceptor pair from CIS bio international htrf/bioassays (Bedford, Mass.) using both an α-GST Europium (Eu) Cryptate label and an α^6His-XL665 (allophycocyanin) fluorophore.
For TR-FRET measurements, the reaction was buffered in 25 mM Tris pH 8, 2.5 mM Hepes, 20 mM KCl, 1 mM DTT, and 0.05 mg/mL BSA (delipidated). The final concentrations of reagents were 6 nM of ERR1LBD, 6 nM GST-SRC-2 peptide, 30 nM Eu cryptate, and 7.5 nM a^6His-XL665. Reactions were allowed to reach equilibrium at 25° C. for 4-18 h before collecting data on the Analyst from LJL Biosystems (Molecular Devices Sunnyvale, Calif.). […] Dose response curves were fitted using a hyperbolic equation and the data reported is the average of 3 independent experiments.
`O=C1S/C(=C\c2ccc3c(cnn3Cc3ccc(Cl)cc3C(F)(F)F)c2)C(=O)N1C[C@@H]1CN2CCC[C@H]2CO1` [Compound 203, (5Z)-5-({1-[4-Chloro-2-(trifluoromethyl)benzyl]-1H-indazol-5-yl}methylidene)-3-[(3S,8aS)-hexahydro-1H-pyrrolo[2,1-c] [1,4]oxazin-3-ylmethyl]-1,3-thiazolidine-2,4-dione] registered a 50% effective concentration (EC50) of 53 nM. Regarding `CCN1CC[C@@H](N2C(=O)S/C(=C\c3ccc4c(cnn4Cc4ccc(C(F)(F)F)cc4C(F)(F)F)c3)C2=O)[C@H](F)C1` (relative stereo) [Compound 336, (5Z)-5-({1-[2,4-Bis(trifluoromethyl)benzyl]-1H-indazol-5-yl}methylidene)-3-[trans-1-ethyl-3-fluoropiperidin-4-yl]-1,3-thiazolidine-2,4-dione], it took 293 nM to reach a half-maximal effect (EC50). `CN1C[C@H](F)C[C@H]1CN1C(=O)S/C(=C\c2ccc3c(cnn3Cc3ccc(Cl)cc3C(F)(F)F)c2)C1=O` [Compound 193, (5Z)-5-({1-[4-Chloro-2-(trifluoromethyl)benzyl]-1H-indazol-5-yl}methylidene)-3-{[(2S,4R)-4-fluoro-1-methylpyrrolidin-2-yl]methyl}-1,3-thiazolidine-2,4-dione] came in with a concentration for a half-maximal effect (EC50) of 160 nM. Then `CCN1CC[C@@H](N2C(=O)S/C(=C\c3ccc4c(cnn4Cc4ccc(Cl)cc4C(F)(F)F)c3)C2=O)[C@H](F)C1` [Compound 386, (5Z)-5-({1-[4-Chloro-2-(trifluoromethyl)benzyl]-1H-indazol-5-yl}methylidene)-3-[(3R,4R)-1-ethyl-3-fluoropiperidin-4-yl]-1,3-thiazolidine-2,4-dione], with 42 nM. For the molecule `Cc1nn(Cc2ccc(Cl)cc2C(F)(F)F)c2ccc(/C=C3\SC(=O)N(CCN4CCCC4)C3=O)cc12` [Compound 41, (5Z)-5-({1-[4-Chloro-2-(trifluoromethyl)benzyl]-3-methyl-1H-indazol-5-yl}methylidene)-3-(2-pyrrolidin-1-ylethyl)-1,3-thiazolidine-2,4-dione], a half-maximal response (EC50) required 9 nM. To `O=C(O)[C@H](CO)N1C(=O)S/C(=C\c2ccc3c(cnn3Cc3ccc(Cl)cc3C(F)(F)F)c2)C1=O` [Compound 221, (2S)-2-[(5Z)-5-({1-[4-Chloro-2-(trifluoromethyl)benzyl]-1H-indazol-5-yl}methylidene)-2,4-dioxo-1,3-thiazolidin-3-yl]-3-hydroxypropanoic acid] belongs 61 nM; to `O=C1S/C(=C\c2ccc3c(cnn3Cc3ccc(Cl)cc3C(F)(F)F)c2)C(=O)N1CCNC(=O)C(F)(F)F` [Compound 390, N-{2-[(5Z)-5-({1-[4-Chloro-2-(trifluoromethyl)benzyl]-1H-indazol-5-yl}methylidene)-2,4-dioxo-1,3-thiazolidin-3-yl]ethyl}-2,2,2-trifluoroacetamide], 64 nM; to `COCCN1C(=O)S/C(=C\c2ccc3c(ccn3Cc3ccc(F)cc3C(F)(F)F)c2)C1=O` [Compound 251, (5Z)-5-[(1-{[4-Fluoro-2-(trifluoromethyl)phenyl]methyl}-1H-indol-5-yl)methylidene]-3-[2-(methyloxy)ethyl]-1,3-thiazolidine-2,4-dione], 350 nM.

Consider `O=C1CNCCC1N1C(=O)S/C(=C\c2ccc3c(cnn3Cc3ccc(Cl)cc3C(F)(F)F)c2)C1=O` (stereo not shown) [Compound 341, (5Z)-5-({1-[4-Chloro-2-(trifluoromethyl)benzyl]-1H-indazol-5-yl}methylidene)-3-(3-oxopiperidin-4-yl)-1,3-thiazolidine-2,4-dione], for which the response was half-maximal at 39 nM (EC50). For `COC(=O)N1CCN(CCN2C(=O)S/C(=C\c3ccc4c(cnn4Cc4ccc(Cl)cc4C(F)(F)F)c3)C2=O)S1(=O)=O` [Compound 339, Methyl 5-{2-[(5Z)-5-({1-[4-chloro-2-(trifluoromethyl)benzyl]-1H-indazol-5-yl}methylidene)-2,4-dioxo-1,3-thiazolidin-3-yl]ethyl}-1,2,5-thiadiazolidine-2-carboxylate 1,1-dioxide], the EC50 was determined as 106 nM. `O=C1S/C(=C\c2ccc3c(ccn3Cc3ccc(C(F)(F)F)cc3C(F)(F)F)c2)C(=O)N1CCO` [Compound 242, (5Z)-5-[(1-{[2,4-Bis(trifluoromethyl)phenyl]methyl}-1H-indol-5-yl)methylidene]-3-(2-hydroxyethyl)-1,3-thiazolidine-2,4-dione]: the half-maximal effective concentration (EC50) was 100 nM.

With `CC(C)C[C@@H](N)CN1C(=O)S/C(=C\c2ccc3c(cnn3Cc3ccc(Cl)cc3C(F)(F)F)c2)C1=O` [Compound 54, (5Z)-3-[(2R)-2-Amino-4-methylpentyl]-5-({1-[4-chloro-2-(trifluoromethyl)benzyl]-1H-indazol-5-yl}methylidene)-1,3-thiazolidine-2,4-dione], a half-maximal response (EC50) required 37 nM. As to `O=C(O)CN1C(=O)S/C(=C\c2ccc3c(ccn3Cc3ccc(Cl)cc3C(F)(F)F)c2)C1=O` [Compound 253, [(5Z)-5-({1-[4-Chloro-2-(trifluoromethyl)benzyl]-1H-indol-5-yl}methylidene)-2,4-dioxo-1,3-thiazolidin-3-yl]acetic acid], a half-maximal response (EC50) required 120 nM. Take `O=C1S/C(=C\c2ccc3c(cnn3Cc3ccc(Cl)cc3C(F)(F)F)c2)C(=O)N1CCN1CC(O)C1` [Compound 115, (5Z)-5-({1-[4-Chloro-2-(trifluoromethyl)benzyl]-1H-indazol-5-yl}methylidene)-3-[2-(3-hydroxyazetidin-1-yl)ethyl]-1,3-thiazolidine-2,4-dione]: the response was half-maximal at 130 nM (EC50). `N#Cc1nn(Cc2ccc(Cl)cc2C(F)(F)F)c2ccc(/C=C3\SC(=O)N(CC(=O)O)C3=O)cc12` [Compound 416, [(5Z)-5-({1-[4-Chloro-2-(trifluoromethyl)benzyl]-3-cyano-1H-indazol-5-yl}methylidene)-2,4-dioxo-1,3-thiazolidin-3-yl]acetic acid]: the EC50 is 35 nM.

In turn, `CC(=O)Nc1nc(C)c(S(=O)(=O)NCCN2C(=O)S/C(=C\c3ccc4c(cnn4Cc4ccc(Cl)cc4C(F)(F)F)c3)C2=O)s1` [Compound 420, N-[5-({2-[(5Z)-5-({1-[4-Chloro-2-(trifluoromethyl)benzyl]-1H-indazol-5-yl}methylidene)-2,4-dioxo-1,3-thiazolidin-3-yl]ethyl}sulfamoyl)-4-methyl-1,3-thiazol-2-yl]acetamide] returned an EC50 of 28 nM.

Consider `CS(=O)(=O)NN1C(=O)S/C(=C\c2ccc3c(cnn3Cc3ccc(C#N)cc3C(F)(F)F)c2)C1=O` [Compound 362, N-[(5Z)-5-({1-[4-Cyano-2-(trifluoromethyl)benzyl]-1H-indazol-5-yl}methylidene)-2,4-dioxo-1,3-thiazolidin-3-yl]methanesulfonamide], for which the EC50 turned out to be 308 nM. Take `O=C1S/C(=C\c2ccc3c(cnn3Cc3ccc(Cl)cc3C(F)(F)F)c2)C(=O)N1[C@@H]1CNCC[C@H]1O` (relative stereo) [Compound 279, (5Z)-5-({1-[4-Chloro-2-(trifluoromethyl)-benzyl]-1H-indazol-5-yl}methylidene)-3-[trans-4-hydroxypiperidin-3-yl]-1,3-thiazolidine-2,4-dione]: the 50% effective concentration (EC50) was found to be 22 nM. Turning to `NC[C@H]1CC[C@H](CN2C(=O)S/C(=C\c3ccc4c(cnn4Cc4ccc(Cl)cc4C(F)(F)F)c3)C2=O)CC1` [Compound 106, (5Z)-3-{[trans-4-(Aminomethyl)cyclohexyl]methyl}-5-({1-[4-chloro-2-(trifluoromethyl)benzyl]-1H-indazol-5-yl}methylidene)-1,3-thiazolidine-2,4-dione], a half-maximal effect (EC50) was put at 350 nM.
